Here are results for 19 molecules from US6858638B2, “Substituted indazoles, compositions containing them, method of production and use” (Aventis Pharma S.A., priority 2002, dated 2005).

Assay type in all cases: biochemical
For one assay, the target named is T1, human FAK (Homo sapiens, UniProt Q05397).
T1 construct: The complete cDNA of human FAK; made in house; host or cells: baculovirus expression system (vector pFastBac HTc)
The assay is described as follows: FAK autophosphorylation inhibition, time resolved fluorescence (HTRF) assay. As to conditions: for inhibition at 30 µM: 30 μM (values marked *), read-out: FAK % inhib at 30* μM; for inhibition at 10 µM: 10 μM (values without asterisk), read-out: FAK % inhib at 10 μM. As to the method: The inhibitory activity of the compounds on FAK is determined by measuring the inhibition of the autophosphorylation of the enzyme using a time resolved fluorescence (HTRF) assay.
The complete cDNA of human FAK, the N-terminal end of which was labeled with histidine, was cloned into a baculovirus expression vector pFastBac HTc. The protein was expressed and purified to approximately 70% homogeneity.
The kinase activity is determined by incubating the enzyme (6.6 μg/ml) with various concentrations of test compound in a 50 mM Hepes buffer, pH=7.2, containing 10 mM MgCl2, 100 μM Na3VO4 and 15 μM d'ATP for 1 hour at 37° C. The enzyme reaction is stopped by adding Hepes buffer, pH=7.0, containing […], 133 mM EDTA and 0.1% BSA, and the labeling is carried out, over 1 to 2 hours at ambient temperature, by adding to this buffer an anti-Histidine antibody labeled with XL665 and a monoclonal antibody phosphospecific for tyrosine, conjugated to europium cryptate (Eu-K). The characteristics of the two fluorophores are available in G. Mathis et al., Anticancer Research, 1997, 17, pages 3011-3014. The transfer of energy from the excited europium cryptate to the XL665 acceptor is proportional to the degree of autophosphorylation of FAK. The long-lived signal specific for XL-665 is measured in a Packard Discovery plate counter. All the assays are carried out in duplicate and the mean of the two assays is calculated. The inhibition of the FAK autophosphorylation activity with compounds of the invention is expressed as percentage inhibition compared to a control whose activity is measured in the absence of test compound. The [signal at 665 nm/signal at 620 nm] ratio is used for the calculation of the % inhibition.
In general terms: TR-FRET usually uses a lanthanide donor and a delayed reading to cut background.

For another assay, the target named is T2, human KDR enzyme (Homo sapiens, UniProt P35968).
T2 construct: The cytoplasmic domain of the human KDR enzyme; GST; made in house; host or cells: SF21 insect cells (baculovirus)
T2 sequence (P35968 786-1356 limits assumed): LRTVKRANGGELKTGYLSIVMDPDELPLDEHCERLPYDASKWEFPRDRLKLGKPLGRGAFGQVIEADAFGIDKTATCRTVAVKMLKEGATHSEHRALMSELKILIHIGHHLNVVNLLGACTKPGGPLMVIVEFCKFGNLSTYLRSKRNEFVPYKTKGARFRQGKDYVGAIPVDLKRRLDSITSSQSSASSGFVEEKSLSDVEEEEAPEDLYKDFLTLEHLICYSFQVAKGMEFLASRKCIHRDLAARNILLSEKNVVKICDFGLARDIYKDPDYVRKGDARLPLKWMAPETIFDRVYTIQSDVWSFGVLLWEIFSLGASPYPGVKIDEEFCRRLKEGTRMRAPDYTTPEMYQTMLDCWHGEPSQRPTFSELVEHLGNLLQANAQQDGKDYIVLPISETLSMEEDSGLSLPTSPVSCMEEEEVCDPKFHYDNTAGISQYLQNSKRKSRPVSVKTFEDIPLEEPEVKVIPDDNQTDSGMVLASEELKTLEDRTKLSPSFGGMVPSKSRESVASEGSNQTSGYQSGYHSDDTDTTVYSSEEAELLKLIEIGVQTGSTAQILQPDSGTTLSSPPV
The assay is described as follows: KDR substrate (PLCγ) phosphorylation, scintillation assay. To be noted: 10 μM; read-out: KDR % inhib at 10 μM. Here is the method: The inhibitory effect of the compounds is determined in an assay of substrate phosphorylation by the KDR enzyme in vitro using a scintillation technique (96-well plate, NEN).
The cytoplasmic domain of the human KDR enzyme was cloned in the form of a GST fusion into the baculovirus expression vector pFastBac. The protein was expressed in SF21 cells and purified to approximately 60% homogeneity.
The KDR kinase activity is measured in 20 mM MOPS, 10 mM MgCl2, 10 mM MnCl2, 1 mM DTT, 2.5 mM EGTA, 10 mM β-glycerophosphate, pH=7.2, in the presence of 10 mM MgCl2, 100 μM Na3VO4, 1 mM NaF. 10 μl of the compound are added to 70 μl of kinase buffer containing 100 ng of KDR enzyme at 4° C. The reaction is triggered by adding 20 μl of solution containing 2 μg of substrate (SH2-SH3 fragment of PLCγ expressed in the form of a GST fusion protein), 2 μCi γ^33P[ATP] and 2 μM cold ATP. After incubation for 1 hour at 37° C., the reaction is stopped by adding 1 volume (100 μl) of 200 mM EDTA. The incubation buffer is removed and the wells are washed three times with 300 μl of PBS. The radioactivity is measured in each well using Top Count NXT radioactivity counter (Packard).
The background noise is determined by measuring the radioactivity in four different wells containing the radioactive ATP and the substrate alone.
A control for total activity is measured in four different wells containing all the reagents (γ^33P-[ATP], KDR and PLCγ substrate) but in the absence of compound.
The inhibition of the KDR activity with the compound of the invention is expressed as percentage inhibition of the control activity determined in the absence of compound.
The compound SU5614 (Calbiochem) (1 μM) is included in each plate as an inhibition control.

The next assay addresses T3, Aurora2 kinase (Homo sapiens, UniProt O14965).
T3 construct: A complete recombinant Aurora2 enzyme; His tag (N); made in house; host or cells: E. coli
T3 sequence (O14965 1-403): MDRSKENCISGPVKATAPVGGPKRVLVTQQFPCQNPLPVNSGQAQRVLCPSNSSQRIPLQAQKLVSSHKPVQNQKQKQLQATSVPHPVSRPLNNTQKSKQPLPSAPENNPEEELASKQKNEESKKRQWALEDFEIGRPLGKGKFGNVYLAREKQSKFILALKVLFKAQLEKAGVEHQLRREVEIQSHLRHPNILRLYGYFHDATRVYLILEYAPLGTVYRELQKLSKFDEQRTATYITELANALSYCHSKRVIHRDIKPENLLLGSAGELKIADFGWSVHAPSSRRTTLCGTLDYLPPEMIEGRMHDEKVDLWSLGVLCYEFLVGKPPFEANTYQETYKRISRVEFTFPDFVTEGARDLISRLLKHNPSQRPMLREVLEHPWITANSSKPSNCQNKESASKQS
Briefly: Aurora2 kinase radioactivity scintillation assay using nickel chelate (NuMA substrate). To be noted: 10 μM; read-out: Aurora2 % inhib at 10 μM. Here is the method: The inhibitory effect of compounds with respect to the Aurora2 kinase is determined with a radioactivity scintillation assay using nickel chelate.
A complete recombinant Aurora2 enzyme, the N-terminal end of which was labeled with histidine, was expressed in E. coli and purified to a quality close to homogeneity.
The C-terminal fragment (Q1687-H2101) of a NuMA (Nuclear protein that associates with the Mitotic Apparatus) expressed in E. coli, and the N-terminal end of which was labeled with histidine, was purified by nickel chelate chromatography and used as substrate in the Aurora2 kinase assay. In order to determine the kinase activity, the NuMA substrate is equilibrated by chromatography on a Pharmacia PD10 column, in a buffer (50 mM Tris HCl, pH7.5, 50 mM NaCl, 10 mM MgCl2) to which 10% (v/v) of glycerol and 0.05% (w/v) of NP40 have been added.
The kinase acivitity of Aurora2 is measured by scintillation with nickel chelate (New England Nuclear, model SMP107). Each well contains 100 μl of the following solution: 0.02 μM of Aurora2; 0.5 μM of NuMA substrate; 1 μM of ATP to which 0.5 μCi of ATP-[^33P] has been added. The solutions are incubated for 30 minutes at 37° C. The assay buffer is then removed and the wells are rinsed twice with 300 μl of kinase buffer. The radioactivity is measured in each well using a Packard Model Top Count NXT device.
The background noise is deduced from the measurement of radioactivity by measuring, in duplicate, in wells containing the radioactive ATP alone containing buffered kinase treated in the same way as the other samples.
The activity of the control is determined by measuring, in duplicate, the radioactivity in the complete assay mixture (ATP, Aurora2 and the NuMA substrate) in the absence of test compound.
The inhibition of the Aurora2 with a compound of the invention is expressed as percentage inhibition of the control activity in the absence of test compound. Staurosporine is added to each plate as an inhibition control.

Each structure is given as a SMILES string.

T1 sequence (Q05397 whole entry): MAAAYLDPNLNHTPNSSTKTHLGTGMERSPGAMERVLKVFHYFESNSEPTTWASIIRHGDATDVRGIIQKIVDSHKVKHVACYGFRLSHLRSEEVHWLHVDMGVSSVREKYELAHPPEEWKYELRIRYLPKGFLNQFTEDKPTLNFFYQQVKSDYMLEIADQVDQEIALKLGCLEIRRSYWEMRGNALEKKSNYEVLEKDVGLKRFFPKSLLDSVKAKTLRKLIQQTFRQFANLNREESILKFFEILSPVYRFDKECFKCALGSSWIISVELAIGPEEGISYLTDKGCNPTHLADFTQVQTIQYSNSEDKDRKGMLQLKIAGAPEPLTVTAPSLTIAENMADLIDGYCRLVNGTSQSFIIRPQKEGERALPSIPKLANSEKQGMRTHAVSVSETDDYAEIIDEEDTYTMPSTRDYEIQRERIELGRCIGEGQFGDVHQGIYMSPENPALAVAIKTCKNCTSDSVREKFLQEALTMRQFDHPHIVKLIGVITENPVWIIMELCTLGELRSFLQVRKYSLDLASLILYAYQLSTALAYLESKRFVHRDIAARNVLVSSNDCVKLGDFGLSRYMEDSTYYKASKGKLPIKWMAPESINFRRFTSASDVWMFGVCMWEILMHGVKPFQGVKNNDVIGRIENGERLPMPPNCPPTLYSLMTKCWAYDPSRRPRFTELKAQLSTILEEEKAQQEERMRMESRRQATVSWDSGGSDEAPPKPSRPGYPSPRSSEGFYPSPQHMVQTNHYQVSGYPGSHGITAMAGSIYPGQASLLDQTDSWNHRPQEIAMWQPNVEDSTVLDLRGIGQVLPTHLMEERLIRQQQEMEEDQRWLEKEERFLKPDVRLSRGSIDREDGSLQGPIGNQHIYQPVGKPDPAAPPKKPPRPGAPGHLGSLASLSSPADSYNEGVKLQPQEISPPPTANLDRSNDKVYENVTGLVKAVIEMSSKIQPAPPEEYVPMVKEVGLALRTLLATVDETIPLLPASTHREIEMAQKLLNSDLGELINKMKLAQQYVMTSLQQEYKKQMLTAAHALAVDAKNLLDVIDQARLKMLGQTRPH

With `NC(=O)c1n[nH]c2ccc(NS(=O)(=O)c3cccc(F)c3)cc12` [Example 21], at human FAK, the inhibition at 30 µM came out at 76%. Further, the inhibition at 10 µM at human KDR enzyme turned out to be 80%.

In the case of `CC(=O)Nc1ccccc1-c1n[nH]c2ccc(NS(=O)(=O)c3cccc(F)c3)cc12` [Example 47, N-{2-[5-(3-Fluorobenzenesulfonylamino)-1H-indazol-3-yl]phenyl}acetamide], the values for the inhibition at 10 µM at human FAK, on human KDR enzyme and at Aurora2 kinase were 32%, 25% and 65%, respectively.

In the case of `O=C(Nc1ccccc1)c1n[nH]c2ccc(NS(=O)(=O)c3cccc(F)c3)cc12` [Example 22, N-Phenyl-5-(3-fluorobenzenesulfonylamino)-1H-indazole-3-carboxamide], the inhibition at 10 µM on human FAK worked out at 89%; at human KDR enzyme it was 18%; at Aurora2 kinase, 84%.

Regarding `CC(=O)Nc1ccc(S(=O)(=O)Nc2ccc3[nH]nc(-c4ccccc4)c3c2)cc1Cl` [Example 146, N-[2-Chloro-4-(3-phenyl-1H-indazol-5-ylsulfamoyl)phenyl]-acetamide], the inhibition at 10 µM at human FAK came to 14%; on human KDR enzyme it was 47%; on Aurora2 kinase, 57%.

For `CS(=O)(=O)c1ccccc1S(=O)(=O)Nc1ccc2[nH]nc(-c3cccc(C(=O)O)c3)c2c1` [Example 56, 3-[5-(2-Methylsulfonylbenzenesulfonamino)-1H-indazol-3-yl]benzoic acid], the inhibition at 10 µM at human FAK was 81%; on human KDR enzyme, 82%; at Aurora2 kinase it was 87%.

On to `O=S(=O)(Nc1ccc2[nH]nc(-c3ccccc3)c2c1)c1ccc(Br)cc1` [Example 116, 4-Bromo-N-(3-phenyl-1H-indazol-5-yl)-benzenesulfonamide], for which the values for the inhibition at 10 µM on human FAK, on human KDR enzyme and on Aurora2 kinase were 20%, 81% and 69%, respectively.

As to `O=S(=O)(Nc1cccc(F)c1)c1ccc2[nH]ncc2c1` [Example 11, N-(3-Fluorophenyl)-(1H-indazol-5-yl)sulfonamide], the inhibition at 10 µM at human FAK came out at 59%; on human KDR enzyme it was 7%.

In the case of `CCCS(=O)(=O)Nc1ccc2[nH]nc(-c3ccccc3)c2c1` [Example 128, N-(3-Phenyl-1H-indazol-5-yl)propanesulfonamide], the inhibition at 10 µM at human FAK amounted to 55%; at human KDR enzyme, 49%; at Aurora2 kinase, 87%.

`CCCCOc1ccc(S(=O)(=O)Nc2ccc3[nH]nc(-c4ccccc4)c3c2)cc1` [Example 145, 4-Butoxy-N-(3-phenyl-1H-indazol-5-yl)-benzenesulfonamide]: the inhibition at 10 µM at human FAK came out at 0%; at human KDR enzyme it was 14%; at Aurora2 kinase, 26%.

With `O=S(=O)(Nc1ccc2[nH]ncc2c1)c1cccc(F)c1` [Example 15, 3-Fluoro-N-(1H-indazol-5-yl)benzenesulfonamide], the inhibition at 30 µM at human FAK was 67%. For the same molecule, at human KDR enzyme, the inhibition at 10 µM came out at 13%.

For `CS(=O)(=O)c1ccccc1S(=O)(=O)Oc1ccc2[nH]nc(-c3cc4ccccc4[nH]3)c2c1` [Example 227], at Aurora2 kinase, the inhibition at 10 µM was found to be 100%.

Consider `CS(=O)(=O)c1ccccc1S(=O)(=O)Nc1ccc2[nH]nc(C(N)=O)c2c1` [Example 20], for which the inhibition at 10 µM was determined as 76% at human FAK and 28% at human KDR enzyme.

For `CS(=O)(=O)c1ccccc1S(=O)(=O)Oc1ccc2[nH]nc(-c3nc4ccccc4[nH]3)c2c1` [Example 226, 3-(1H-Benzimidazol-2-yl)-1H-indazol-5-yl-2-methanesulfonylbenzenesulfonate], on Aurora2 kinase, the inhibition at 10 µM was 100%.

On to `CS(=O)(=O)c1ccccc1S(=O)(=O)Nc1ccc2[nH]nc(C#N)c2c1` [Example 5, N-(3-Cyano-1H-indazol-5-yl)-2-methylsulfonylbenzenesulfonamide], for which the inhibition at 30 µM on human FAK is 80%. In addition, at human KDR enzyme, the inhibition at 10 µM came out at 26%.

`O=S(=O)(Oc1ccc2[nH]ncc2c1)c1cccc(F)c1` [Example 17, 1H-Indazol-5-yl 3-fluorobenzenesulfonate]: the results for the inhibition at 10 µM at human FAK and on human KDR enzyme were 59% and 46%, respectively.

As to `CNC(=O)c1n[nH]c2ccc(NS(=O)(=O)c3cccc(F)c3)cc12` [Example 19, N-Methyl-5-(3-fluorobenzenesulfonylamino)-1H-indazole-3-carboxamide], the values for the inhibition at 10 µM at human FAK and on human KDR enzyme were 85% and 73%, respectively.

For the molecule `O=S(=O)(Nc1ccc2[nH]nc(I)c2c1)c1cccc(F)c1` [Example 12, 3-Fluoro-N-(3-iodo-1H-indazol-5-yl)benzenesulfonamide], the inhibition at 30 µM on human FAK was 92%. On human KDR enzyme, the inhibition at 10 µM stood at 39%.

On to `O=S(=O)(Nc1ccc2[nH]nc(Cl)c2c1)c1ccc(Cl)c(Cl)c1` [Example 2, N-(3-Chloro-1H-indazol-5-yl)-3,4-dichlorobenzenesulfonamide], for which the inhibition at 30 µM on human FAK is 75%. For the same molecule, the inhibition at 10 µM at human KDR enzyme worked out at 43%.

`O=S(=O)(Nc1ccc2[nH]nc(O)c2c1)c1cccc(F)c1` [Example 16, 3-Fluoro-N-(3-hydroxy-1H-indazol-5-yl)benzenesulfonamide]: the inhibition at 10 µM on human FAK came out at 58%; on human KDR enzyme, 8%.
